# Experiments:
# human CYP2A13 [1] = assay: Coumarin metabolism assay; settings: ratio of the CYP2A6 value to the CYP2A13 value
# CYP2A6 / CYP2A13 [2] = assay: Coumarin metabolism assay; settings: human, pH 7.4, probe coumarin (7-hydroxylation), Selectivity Ki (2A6)/ Ki (2A13), ratio of the CYP2A6 value to the CYP2A13 value
# human CYP2A13 [3] = biological target: T1, human CYP2A13 (Homo sapiens, UniProt Q16696); assay: Coumarin metabolism assay
# T1 sequence (Q16696 with tags, fused parts or gaps limits assumed): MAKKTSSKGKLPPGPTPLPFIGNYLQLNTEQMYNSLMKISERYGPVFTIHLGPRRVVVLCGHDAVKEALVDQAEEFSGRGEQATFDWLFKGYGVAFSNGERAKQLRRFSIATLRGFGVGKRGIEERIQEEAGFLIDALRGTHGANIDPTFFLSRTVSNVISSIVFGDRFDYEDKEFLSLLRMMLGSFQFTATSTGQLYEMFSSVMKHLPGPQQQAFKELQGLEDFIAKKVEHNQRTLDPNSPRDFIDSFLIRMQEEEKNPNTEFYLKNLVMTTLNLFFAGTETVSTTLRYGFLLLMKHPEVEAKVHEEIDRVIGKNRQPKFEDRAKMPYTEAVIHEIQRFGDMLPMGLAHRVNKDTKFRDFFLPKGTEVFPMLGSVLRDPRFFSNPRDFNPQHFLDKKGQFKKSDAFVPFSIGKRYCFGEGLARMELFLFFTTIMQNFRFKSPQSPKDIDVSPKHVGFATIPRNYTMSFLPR
# human CYP2A13 [4] = biological target: T2, human CYP2A13 (Homo sapiens, UniProt Q16696); assay: Spectral ligand binding assay
# T2 sequence (Q16696 25-494): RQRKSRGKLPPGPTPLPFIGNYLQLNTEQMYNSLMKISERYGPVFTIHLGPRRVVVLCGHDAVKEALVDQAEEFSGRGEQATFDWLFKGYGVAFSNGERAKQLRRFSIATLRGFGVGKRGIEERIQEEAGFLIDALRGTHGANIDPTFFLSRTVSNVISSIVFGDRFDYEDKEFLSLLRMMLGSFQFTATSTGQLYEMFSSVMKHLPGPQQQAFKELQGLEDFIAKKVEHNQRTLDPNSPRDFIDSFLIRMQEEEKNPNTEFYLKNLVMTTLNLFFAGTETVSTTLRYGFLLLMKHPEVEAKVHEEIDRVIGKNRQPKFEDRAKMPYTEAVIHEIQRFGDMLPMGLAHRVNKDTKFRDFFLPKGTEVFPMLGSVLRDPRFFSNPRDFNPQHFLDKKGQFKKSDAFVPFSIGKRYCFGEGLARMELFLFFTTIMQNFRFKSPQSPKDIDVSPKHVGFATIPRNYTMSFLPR
# human CYP2A13 [5] = assay: Spectral ligand binding assay; settings: ratio of the CYP2A6 value to the CYP2A13 value
# CYP2A6 / CYP2A13 [6] = assay: Spectral ligand binding assay; parameters: species or system human; settings: human, Selectivity Kd (2A6)/ Kd (2A13), ratio of the CYP2A6 value to the CYP2A13 value
# human CYP2A6 = biological target: T3, human CYP2A6 (Homo sapiens, UniProt P11509); assay: Coumarin metabolism assay
# T3 sequence (P11509 with tags, fused parts or gaps limits assumed): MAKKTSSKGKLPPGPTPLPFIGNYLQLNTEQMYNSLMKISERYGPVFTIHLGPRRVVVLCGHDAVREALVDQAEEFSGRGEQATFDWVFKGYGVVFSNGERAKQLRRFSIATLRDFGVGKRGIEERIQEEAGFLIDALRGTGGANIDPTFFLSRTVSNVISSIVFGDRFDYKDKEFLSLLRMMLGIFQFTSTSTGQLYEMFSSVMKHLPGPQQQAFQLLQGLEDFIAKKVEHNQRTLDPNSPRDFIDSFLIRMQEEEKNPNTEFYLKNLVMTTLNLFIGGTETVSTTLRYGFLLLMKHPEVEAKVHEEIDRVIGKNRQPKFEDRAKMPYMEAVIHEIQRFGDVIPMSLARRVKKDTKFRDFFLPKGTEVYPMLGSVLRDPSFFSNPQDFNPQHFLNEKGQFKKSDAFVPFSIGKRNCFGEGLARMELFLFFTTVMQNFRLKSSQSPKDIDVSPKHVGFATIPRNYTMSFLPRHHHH
# NNK-induced tumors = settings: rats; reduced from 70% without inhibitor; cited from earlier work
Selectivity Ki (2A6)/ Ki (2A13) (human CYP2A13 [1]),Ki (human CYP2A13 [3]) [µM],"Kd (human CYP2A13 [4]; Kd 2A13, spectral titration, ≥ = minimal Kd value) [µM]",Spectral shift type 2A13 (human CYP2A13 [4]; UV/Vis difference spectra),Selectivity Kd (2A6)/ Kd (2A13) (human CYP2A13 [5]),Ki (human CYP2A6) [µM],Mode of inhibition 2A6 (human CYP2A6; coumarin substrate),"α (mixed inhibition) 2A6 (human CYP2A6; coumarin substrate, mixed model inhibition)",SMILES,selectivity ratio at 10 min (CYP2A6 / CYP2A13 [2]),selectivity ratio (CYP2A6 / CYP2A13 [6]),NNK-induced tumors (NNK-induced tumors) [%]
8.2,59,8.3 ± 4.1,I,18.6,483,mixed inhibition,3.1,"Clc1ccccc1CN1CCSCC1 [Compound 18, 4-(2-chlorobenzyl)thiomorpholine]",8,18,
,,,,,,,,"S=C=NCCc1ccccc1 [PEITC, phenethyl isothiocyanate]",,,5

# Source: PMC3781598 (Pharmaceutical research, 2013)
